# Laboratory results published in patent US20230120044A1, “AGROCHEMICAL ADJUVANTS” (Croda International Plc, priority 2020, published 2023).
# Tests used:
# B. cinerea = experiment: Adjuvancy with other fungicides for B. cinerea; type: cell-based, Botrytis cinerea
# Protocol: Botrytis cinerea (ATCC 90479) was cultured on potato dextrose agar (PDA) for 7 days with diurnal UV cycles (12 h UV light and 12 h dark). Spores were harvested in a buffered, sterile saline solution (0.9% saline water with 1% Tween 80) and counted using a haemocytometer. The spore suspension was adjusted to a final concentration of 8.5×10^6 spores/mL to create a standardised inoculum. To prepare hyphal fragments for adjuvant testing, 8.5×10^4 spores were used to inoculate 10 mL of potato dextrose broth in a 150×25 mm tube. The tube was incubated at 220 RPM, 22° C. for 48 hours. To create hyphal fragments from the culture, the culture was transferred to a 50 mL plastic conical tube containing approximately 20 sterile 5 mm diameter glass beads and vortexed for 5 min. After vortexing the tube was allowed to stand for 5 min to allow large mycelial clumps to settle and then the top layer containing hyphal fragments was removed and used as inocula for growth inhibition assays. Fungicides and adjuvants were dissolved in methanol and added to molten PDA (˜50° C.) and then the agar was distributed in the wells of 12 well multiwell plates (1 mL/well). The plates were cooled to room temperature and 10 μL of hyphal inoculum was added to the centre of each well. The plates were incubated at 22° C. for 48 hours and then the colony diameter was measured using a digital caliper. The biological growth control consisted of hyphae and vehicle (0.07% methanol), the negative control was media and vehicle (0.07% methanol). To expand the functional characterisation of the lamellicolic anhydride adjuvant (Ia) was tested in combination with seven fungicides belonging to six different fungicide groups as classified by the Fungicide Resistance Action Committee (FRAC Code List 2018). Numbers indicate fold change improvement in fungal growth inhibition relative to the fungal test organisms treated with fungicide and adjuvant vehicle alone. n.t. indicates not tested.
# Fusarium solani = experiment: Adjuvancy with other fungicides for other fungus, FT1; type: cell-based; details: Ia 4 μg/mL + dimethomorph 12.8 μg/mL
# Protocol: (§1) To evaluate the biological spectrum of activity, lamellicolic anhydride adjuvant (Ta) was tested in combination with seven fungicides against six different fungal test organisms belonging to five different genera.
# (§2) Prior to evaluating the adjuvant effect of (Ia), the minimum inhibitory concentration (MIC) for each fungicide against each test organism was determined by measuring growth on agar plates containing decreasing concentrations of fungicide.
# (§3) Once the MIC was determined, adjuvant testing was performed with the concentration of (Ta) fixed at 4 μg/mL and each fungicide at a concentration which inhibited growth of the fungus by 10-20%.
# (§4) Fungal targets are: FT1 —Fusarium solani, FT2 —Fusarium oxysporum, FT3 —Alternaria infectorium, FT4 —Penicillium roqueforti, FT5 —Aspergillus flavus, FT6 —Cladosporium sp.
# (§5) The numbers indicate fold change improvement in fungal growth inhibition relative to the fungal test organisms treated with fungicide and adjuvant vehicle alone. A value of 1 would indicate no effect on fungicidal activity, whilst a value >1 indicates improved fungicidal activity. n.t. indicates not tested.
# Penicillium roqueforti = experiment: Adjuvancy with other fungicides for other fungus, FT4; type: cell-based
# Protocol: as §1, §2, §3, §4, §5
# Alternaria infectorium = experiment: Adjuvancy with other fungicides for other fungus, FT3; type: cell-based
# Protocol: as §1, §2, §3, §4, §5
# Aspergillus flavus = experiment: Adjuvancy with other fungicides for other fungus, FT5; type: cell-based
# Protocol: as §1, §2, §3, §4, §5
# Cladosporium sp. = experiment: Adjuvancy with other fungicides for other fungus, FT6; type: cell-based; details: Ia 4 μg/mL + pyrimethanil 0.006 μg/mL
# Protocol: as §1, §2, §3, §4, §5
# Fusarium oxysporum = experiment: Adjuvancy with other fungicides for other fungus, FT2; type: cell-based; details: Ia 4 μg/mL + pyraclostrobin 0.01 μg/mL
# Protocol: as §1, §2, §3, §4, §5
# [1] = tested on: Botrytis cinerea (ATCC 90479); experiment: Adjuvancy with pyraclostrobin, agar growth inhibition of hyphal inoculum; type: cell-based; details: for Fold Change in Growth Inhibition: vs pyraclostrobin alone, 48 hours, 22° C.
# Protocol: Percent Inhibition—The percent inhibition will be understood to represent the amount the fungicide and/or adjuvant inhibits the visible growth of the microorganism after 48 hours incubation at 22° C. relative to vehicle treated controls. This is calculated using the following formula: […]
# Fold Change—The fold change is a measure of the adjuvant/fungicide combination in inhibiting a microorganism compared to the fungicide alone. This indicates how the adjuvant performs relative to the fungicide alone. This is calculated using the following formula: […]
# Botrytis cinerea (ATCC 90479) was cultured on potato dextrose agar (PDA) for 7 days with diurnal UV cycles (12 h UV light and 12 h dark). Spores were harvested in a buffered, sterile saline solution (0.9% saline water with 1% Tween 80) and counted using a haemocytometer. The spore suspension was adjusted to a final concentration of 8.5×10^6 spores/mL to create a standardised inoculum.
# To prepare hyphal fragments for adjuvant testing, 8.5×10^4 spores were used to inoculate 10 mL of potato dextrose broth in a 150×25 mm tube. The tube was incubated at 220 RPM, 22° C. for 48 hours. To create hyphal fragments from the culture, the culture was transferred to a 50 mL plastic conical tube containing approximately 20 sterile 5 mm diameter glass beads and vortexed for 5 min. After vortexing the tube was allowed to stand for 5 min to allow large mycelial clumps to settle and then the top layer containing hyphal fragments was removed and used as inocula for growth inhibition assays.
# Fungicides and adjuvants were dissolved in methanol and added to molten PDA (˜50° C.) and then the agar was distributed in the wells of 12 well multiwell plates (1 mL/well). The plates were cooled to room temperature and 10 μL of hyphal inoculum was added to the centre of each well. The plates were incubated at 22° C. for 48 hours and then the colony diameter was measured using a digital caliper. The biological growth control consisted of hyphae and vehicle (0.07% methanol), the negative control was media and vehicle (0.07% methanol).
# [2] = Ia 4 μg/mL + iprodione 0.0015 μg/mL
# [3] = Ia 4 μg/mL + mancozeb 0.2 μg/mL
# [4] = Ia 4 μg/mL + pyraclostrobin 0.001 μg/mL
structure (smiles),measurement,setting,value
"Cc1cc(O)c2c3c(c(O)cc(O)c13)C(=O)OC2=O [Lam 261 (Ia), Lamellicolic anhydride]",Fold Change in Growth Inhibition,B. cinerea; Lam 261 (Ia) 1 μg/mL + benomyl 0.0015 μg/mL,16.45
same,Fold Change in Growth Inhibition,B. cinerea; Lam 261 (Ia) 1 μg/mL + captan 0.008 μg/mL,17.25
same,Fold Change in Growth Inhibition,B. cinerea; Lam 261 (Ia) 1 μg/mL + captan 0.04 μg/mL,27.32
same,Fold Change in Growth Inhibition,B. cinerea; Lam 261 (Ia) 1 μg/mL + dimethomorph 0.8 μg/mL,17.72
same,Fold Change in Growth Inhibition,B. cinerea; Lam 261 (Ia) 1 μg/mL + mancozeb 0.1 μg/mL,1.89
same,Fold Change in Growth Inhibition,B. cinerea; Lam 261 (Ia) 1 μg/mL + mancozeb 0.2 μg/mL,2.44
same,Fold Change in Growth Inhibition,B. cinerea; Lam 261 (Ia) 1 μg/mL + metalaxyl 0.8 μg/mL,31.72
same,Fold Change in Growth Inhibition,B. cinerea; Lam 261 (Ia) 1 μg/mL + metalaxyl 1.6 μg/mL,27.22
same,Fold Change in Growth Inhibition,B. cinerea; Lam 261 (Ia) 1 μg/mL + prothioconazole 1.0 μg/mL,5.53
same,Fold Change in Growth Inhibition,B. cinerea; Lam 261 (Ia) 1 μg/mL + tebuconazole 0.00018 μg/mL,15.13
same,Fold Change in Growth Inhibition,B. cinerea; Lam 261 (Ia) 1 μg/mL + tebuconazole 0.00075 μg/mL,9.37
same,Fold Change in Growth Inhibition,"B. cinerea; Lam 261 (Ia) 1 μg/mL, benomyl 0 μg/mL (adjuvant alone)",1.00
same,Fold Change in Growth Inhibition,"B. cinerea; Lam 261 (Ia) 1 μg/mL, captan 0 μg/mL (adjuvant alone)",1.00
same,Fold Change in Growth Inhibition,"B. cinerea; Lam 261 (Ia) 1 μg/mL, dimethomorph 0 μg/mL (adjuvant alone)",1.00
same,Fold Change in Growth Inhibition,"B. cinerea; Lam 261 (Ia) 1 μg/mL, mancozeb 0 μg/mL (adjuvant alone)",1.00
same,Fold Change in Growth Inhibition,"B. cinerea; Lam 261 (Ia) 1 μg/mL, metalaxyl 0 μg/mL (adjuvant alone)",1.00
same,Fold Change in Growth Inhibition,"B. cinerea; Lam 261 (Ia) 1 μg/mL, prothioconazole 0 μg/mL (adjuvant alone)",1.00
same,Fold Change in Growth Inhibition,"B. cinerea; Lam 261 (Ia) 1 μg/mL, tebuconazole 0 μg/mL (adjuvant alone)",1.00
same,Fold Change in Growth Inhibition,B. cinerea; Lam 261 (Ia) 2 μg/mL + benomyl 0.0015 μg/mL,20.43
same,Fold Change in Growth Inhibition,B. cinerea; Lam 261 (Ia) 2 μg/mL + captan 0.008 μg/mL,32.35
same,Fold Change in Growth Inhibition,B. cinerea; Lam 261 (Ia) 2 μg/mL + captan 0.04 μg/mL,30.95
same,Fold Change in Growth Inhibition,B. cinerea; Lam 261 (Ia) 2 μg/mL + dimethomorph 0.4 μg/mL,31.0
same,Fold Change in Growth Inhibition,B. cinerea; Lam 261 (Ia) 2 μg/mL + dimethomorph 0.8 μg/mL,16.06
same,Fold Change in Growth Inhibition,B. cinerea; Lam 261 (Ia) 2 μg/mL + mancozeb 0.1 μg/mL,3.06
same,Fold Change in Growth Inhibition,B. cinerea; Lam 261 (Ia) 2 μg/mL + mancozeb 0.2 μg/mL,2.83
same,Fold Change in Growth Inhibition,B. cinerea; Lam 261 (Ia) 2 μg/mL + metalaxyl 0.8 μg/mL,45.13
same,Fold Change in Growth Inhibition,B. cinerea; Lam 261 (Ia) 2 μg/mL + metalaxyl 1.6 μg/mL,32.46
same,Fold Change in Growth Inhibition,B. cinerea; Lam 261 (Ia) 2 μg/mL + prothioconazole 1.0 μg/mL,26.91
same,Fold Change in Growth Inhibition,B. cinerea; Lam 261 (Ia) 2 μg/mL + tebuconazole 0.00018 μg/mL,21.61
same,Fold Change in Growth Inhibition,B. cinerea; Lam 261 (Ia) 2 μg/mL + tebuconazole 0.00075 μg/mL,9.79
same,Fold Change in Growth Inhibition,"B. cinerea; Lam 261 (Ia) 2 μg/mL, benomyl 0 μg/mL (adjuvant alone)",1.00
same,Fold Change in Growth Inhibition,"B. cinerea; Lam 261 (Ia) 2 μg/mL, captan 0 μg/mL (adjuvant alone)",1.00
same,Fold Change in Growth Inhibition,"B. cinerea; Lam 261 (Ia) 2 μg/mL, dimethomorph 0 μg/mL (adjuvant alone)",1.00
same,Fold Change in Growth Inhibition,"B. cinerea; Lam 261 (Ia) 2 μg/mL, mancozeb 0 μg/mL (adjuvant alone)",1.00
same,Fold Change in Growth Inhibition,"B. cinerea; Lam 261 (Ia) 2 μg/mL, metalaxyl 0 μg/mL (adjuvant alone)",1.00
same,Fold Change in Growth Inhibition,"B. cinerea; Lam 261 (Ia) 2 μg/mL, prothioconazole 0 μg/mL (adjuvant alone)",1.00
same,Fold Change in Growth Inhibition,"B. cinerea; Lam 261 (Ia) 2 μg/mL, tebuconazole 0 μg/mL (adjuvant alone)",1.00
same,fold change improvement in fungal growth inhibition,Fusarium solani,1.63
same,fold change improvement in fungal growth inhibition,Penicillium roqueforti; Ia 4 μg/mL + captan 0.04 μg/mL,1.17
same,fold change improvement in fungal growth inhibition,Penicillium roqueforti; Ia 4 μg/mL + dimethomorph 0.8 μg/mL,1.85
same,fold change improvement in fungal growth inhibition,Penicillium roqueforti; [2],1.65
same,fold change improvement in fungal growth inhibition,Penicillium roqueforti; [3],1.63
same,fold change improvement in fungal growth inhibition,Penicillium roqueforti; Ia 4 μg/mL + prothioconazole 0.00375 μg/mL,1.52
same,fold change improvement in fungal growth inhibition,Penicillium roqueforti; [4],1.27
same,fold change improvement in fungal growth inhibition,Penicillium roqueforti; Ia 4 μg/mL + pyrimethanil 0.02 μg/mL,1.31
same,fold change improvement in fungal growth inhibition,Alternaria infectorium; Ia 4 μg/mL + dimethomorph 0.2 μg/mL,1.25
same,fold change improvement in fungal growth inhibition,Alternaria infectorium; Ia 4 μg/mL + mancozeb 0.1 μg/mL,2.45
same,fold change improvement in fungal growth inhibition,Alternaria infectorium; Ia 4 μg/mL + prothioconazole 0.006 μg/mL,1.50
same,fold change improvement in fungal growth inhibition,Alternaria infectorium; [4],1.18
same,fold change improvement in fungal growth inhibition,Aspergillus flavus; Ia 4 μg/mL + dimethomorph 12.8 μg/mL,1.27
same,fold change improvement in fungal growth inhibition,Aspergillus flavus; [2],1.72
same,fold change improvement in fungal growth inhibition,Aspergillus flavus; [3],2.01
same,fold change improvement in fungal growth inhibition,Aspergillus flavus; Ia 4 μg/mL + prothioconazole 0.012 μg/mL,1.28
same,fold change improvement in fungal growth inhibition,Cladosporium sp.,1.67
same,fold change improvement in fungal growth inhibition,Fusarium oxysporum,1.63
"C/C=C/[C@@H]1[C@H]2C[C@@H](C)CC[C@@H]2C(C)=C[C@H]1C(=O)c1c(O)c(-c2ccc(O)cc2)c[nH]c1=O [Ilicicolin H (A), ilicicolin H]",Fold Change in Growth Inhibition,[1]; adjuvant 1.56 μg/mL + pyraclostrobin 0.1 μg/mL,3.32
same,Fold Change in Growth Inhibition,[1]; adjuvant 1.56 μg/mL + pyraclostrobin 0.2 μg/mL,1.93
same,Fold Change in Growth Inhibition,[1]; adjuvant 1.56 μg/mL + pyraclostrobin 0.4 μg/mL,1.36
same,Fold Change in Growth Inhibition,[1]; adjuvant 1.56 μg/mL + pyraclostrobin 0.8 μg/mL,1.04
same,Fold Change in Growth Inhibition,[1]; adjuvant 3.13 μg/mL + pyraclostrobin 0.1 μg/mL,3.51
same,Fold Change in Growth Inhibition,[1]; adjuvant 3.13 μg/mL + pyraclostrobin 0.2 μg/mL,2.43
same,Fold Change in Growth Inhibition,[1]; adjuvant 3.13 μg/mL + pyraclostrobin 0.4 μg/mL,1.35
same,Fold Change in Growth Inhibition,[1]; adjuvant 3.13 μg/mL + pyraclostrobin 0.8 μg/mL,1.21
same,Fold Change in Growth Inhibition,[1]; adjuvant 6.25 μg/mL + pyraclostrobin 0.1 μg/mL,3.62
same,Fold Change in Growth Inhibition,[1]; adjuvant 6.25 μg/mL + pyraclostrobin 0.2 μg/mL,1.88
same,Fold Change in Growth Inhibition,[1]; adjuvant 6.25 μg/mL + pyraclostrobin 0.4 μg/mL,1.26
same,Fold Change in Growth Inhibition,[1]; adjuvant 6.25 μg/mL + pyraclostrobin 0.8 μg/mL,0.96
same,inherent fungicidal activity on their own,"[1]; adjuvant alone, at any of the concentrations tested",did not demonstrate any inherent fungicidal activity
